Common to all, as to assay type: cell-based
Assay [1] concerns the target T1, recombinant rat GluN1/GluN2B (Rattus norvegicus, UniProt P35439+Q00960).
T1 construct: expressed in transfected cells; host or cells: Xenopus laevis oocytes (Ecocyte) injected with in vitro transcribed cRNA
In words: Two-electrode voltage-clamp (TEVC) recordings in Xenopus laevis oocytes, GluN1/GluN2B. To be noted: for EC50: fitted when potentiation at 30 μM exceeded 120%, Tables 3, 5-7, read-out: EC50 (max.) (μM %) GluN2B: fitted EC50. The protocol: (§1) Data are from between 3-26 oocytes from 2-5 frogs for each compound and receptor tested.
(§2) Two-electrode voltage-clamp recordings were performed in Xenopus laevis oocytes (Ecocyte) expressing recombinant rat GluN1/GluN2A, GluN1/GluN2B, GluN1/GluN2C, GluN1/GluN2D. cRNA was transcribed in vitro (Ambion), diluted with nuclease free water, and injected at a ratio of 1:2 GluN1:GluN2 (5-10 ng total cRNA). The oocytes were kept in Barth's solution comprised of (in mM) 88 NaCl, 5 Tris-HCl, 2.4 NaHCO3, 1 KCl, 0.84 MgSO4, 0.41 CaCl2, and 0.33 Ca(NO3)2 at pH 7.4 at 15-17° C. for two to five days before experiments. Oocytes were placed into a perfusion chamber and continually washed with recording solution containing (in mM) 90 NaCl, 1.0 KCl, 0.5 BaCl2, 0.005 EDTA, and 10 HEPES at pH 7.4 (23° C.). Voltage clamp recordings were conducted at a holding potential of −40 mV. All compounds were made as 20 mM stock solutions in DMSO and dissolved to reach the final concentration in recording solution. Final DMSO content was 0.05-0.5% (vol/vol). Some oocytes expressing GluN1/GluN2A were pretreated with […] BAPTA-AM for 10 minutes or injected with […] of 2 mM K-BAPTA to prevent gradual run-up of the current response.
A general note: In two-electrode clamp one electrode senses voltage and the other passes current.

The target in assay [2] is T2, recombinant rat GluN1/GluN2B (Rattus norvegicus, UniProt Q00960).
T2 construct: expressed in transfected cells; host or cells: Xenopus laevis oocytes (Ecocyte) injected with in vitro transcribed cRNA
The description is as above. To be noted: for I10 μM/Icontrol (mean ± SEM, %) GluN2B: 10 μM compound, Table 3; for I30 μM/Icontrol (mean ± SEM, %) GluN2B: 30 μM compound, Tables 5-7. The protocol: as §1, §2

For assay [3], the target named is T3, recombinant rat GluN1/GluN2C (Rattus norvegicus, UniProt P35439+Q00961).
T3 construct: expressed in transfected cells; host or cells: Xenopus laevis oocytes (Ecocyte) injected with in vitro transcribed cRNA
T3 sequence (Q00961 20-1237, other chains not shown): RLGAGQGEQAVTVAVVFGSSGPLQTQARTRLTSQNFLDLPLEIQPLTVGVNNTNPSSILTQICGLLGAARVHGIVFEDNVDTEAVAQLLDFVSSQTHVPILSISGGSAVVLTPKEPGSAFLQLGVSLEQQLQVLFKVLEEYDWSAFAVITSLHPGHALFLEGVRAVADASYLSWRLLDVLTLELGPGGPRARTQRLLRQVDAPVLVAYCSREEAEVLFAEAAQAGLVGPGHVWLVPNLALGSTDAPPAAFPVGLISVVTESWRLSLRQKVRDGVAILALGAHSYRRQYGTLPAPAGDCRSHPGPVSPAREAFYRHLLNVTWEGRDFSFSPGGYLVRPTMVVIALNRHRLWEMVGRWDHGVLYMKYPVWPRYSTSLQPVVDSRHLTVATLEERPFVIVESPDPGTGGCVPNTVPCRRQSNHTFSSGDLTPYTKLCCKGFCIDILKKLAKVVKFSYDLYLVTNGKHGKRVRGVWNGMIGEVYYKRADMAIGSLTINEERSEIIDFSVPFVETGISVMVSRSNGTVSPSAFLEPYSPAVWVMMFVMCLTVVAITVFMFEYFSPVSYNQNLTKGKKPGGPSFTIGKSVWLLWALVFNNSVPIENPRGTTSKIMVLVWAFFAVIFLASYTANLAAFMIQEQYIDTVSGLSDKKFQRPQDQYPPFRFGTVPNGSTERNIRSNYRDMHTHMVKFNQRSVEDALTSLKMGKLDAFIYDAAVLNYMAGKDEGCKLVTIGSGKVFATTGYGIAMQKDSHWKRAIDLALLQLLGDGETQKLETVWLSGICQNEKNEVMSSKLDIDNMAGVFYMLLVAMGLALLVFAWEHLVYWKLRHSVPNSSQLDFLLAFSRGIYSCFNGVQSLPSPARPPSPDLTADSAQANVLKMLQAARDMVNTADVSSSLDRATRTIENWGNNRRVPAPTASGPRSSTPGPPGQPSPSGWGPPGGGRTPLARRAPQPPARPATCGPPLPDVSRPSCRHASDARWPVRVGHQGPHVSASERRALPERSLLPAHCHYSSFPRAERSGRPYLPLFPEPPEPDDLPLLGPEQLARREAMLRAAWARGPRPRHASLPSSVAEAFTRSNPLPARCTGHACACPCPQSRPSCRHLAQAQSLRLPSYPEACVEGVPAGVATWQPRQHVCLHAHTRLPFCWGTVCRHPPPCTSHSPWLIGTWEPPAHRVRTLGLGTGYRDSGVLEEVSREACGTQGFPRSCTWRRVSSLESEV
The assay can be described thus: Two-electrode voltage-clamp (TEVC) recordings in Xenopus laevis oocytes, GluN1/GluN2C. The settings on record: for EC50: fitted when potentiation at 30 μM exceeded 120%, Tables 3, 5-7, read-out: EC50 (max.) (μM %) GluN2C: fitted EC50. The protocol: as §1, §2

The target of assay [4] is T4, recombinant rat GluN1/GluN2C (Rattus norvegicus, UniProt Q00961).
T4 construct: expressed in transfected cells; host or cells: Xenopus laevis oocytes (Ecocyte) injected with in vitro transcribed cRNA
T4 sequence (Q00961 20-1237, other chains not shown): as above
The assay is described as above. The settings on record: for I10 μM/Icontrol (mean ± SEM, %) GluN2C: 10 μM compound, Table 3; for I30 μM/Icontrol (mean ± SEM, %) GluN2C: 30 μM compound, Tables 5-7. The protocol: as §1, §2

In assay [5] the target is T5, recombinant rat GluN1/GluN2D (Rattus norvegicus, UniProt P35439+Q62645).
T5 construct: expressed in transfected cells; host or cells: Xenopus laevis oocytes (Ecocyte) injected with in vitro transcribed cRNA
T5 sequence (Q62645 28-1323, other chains not shown): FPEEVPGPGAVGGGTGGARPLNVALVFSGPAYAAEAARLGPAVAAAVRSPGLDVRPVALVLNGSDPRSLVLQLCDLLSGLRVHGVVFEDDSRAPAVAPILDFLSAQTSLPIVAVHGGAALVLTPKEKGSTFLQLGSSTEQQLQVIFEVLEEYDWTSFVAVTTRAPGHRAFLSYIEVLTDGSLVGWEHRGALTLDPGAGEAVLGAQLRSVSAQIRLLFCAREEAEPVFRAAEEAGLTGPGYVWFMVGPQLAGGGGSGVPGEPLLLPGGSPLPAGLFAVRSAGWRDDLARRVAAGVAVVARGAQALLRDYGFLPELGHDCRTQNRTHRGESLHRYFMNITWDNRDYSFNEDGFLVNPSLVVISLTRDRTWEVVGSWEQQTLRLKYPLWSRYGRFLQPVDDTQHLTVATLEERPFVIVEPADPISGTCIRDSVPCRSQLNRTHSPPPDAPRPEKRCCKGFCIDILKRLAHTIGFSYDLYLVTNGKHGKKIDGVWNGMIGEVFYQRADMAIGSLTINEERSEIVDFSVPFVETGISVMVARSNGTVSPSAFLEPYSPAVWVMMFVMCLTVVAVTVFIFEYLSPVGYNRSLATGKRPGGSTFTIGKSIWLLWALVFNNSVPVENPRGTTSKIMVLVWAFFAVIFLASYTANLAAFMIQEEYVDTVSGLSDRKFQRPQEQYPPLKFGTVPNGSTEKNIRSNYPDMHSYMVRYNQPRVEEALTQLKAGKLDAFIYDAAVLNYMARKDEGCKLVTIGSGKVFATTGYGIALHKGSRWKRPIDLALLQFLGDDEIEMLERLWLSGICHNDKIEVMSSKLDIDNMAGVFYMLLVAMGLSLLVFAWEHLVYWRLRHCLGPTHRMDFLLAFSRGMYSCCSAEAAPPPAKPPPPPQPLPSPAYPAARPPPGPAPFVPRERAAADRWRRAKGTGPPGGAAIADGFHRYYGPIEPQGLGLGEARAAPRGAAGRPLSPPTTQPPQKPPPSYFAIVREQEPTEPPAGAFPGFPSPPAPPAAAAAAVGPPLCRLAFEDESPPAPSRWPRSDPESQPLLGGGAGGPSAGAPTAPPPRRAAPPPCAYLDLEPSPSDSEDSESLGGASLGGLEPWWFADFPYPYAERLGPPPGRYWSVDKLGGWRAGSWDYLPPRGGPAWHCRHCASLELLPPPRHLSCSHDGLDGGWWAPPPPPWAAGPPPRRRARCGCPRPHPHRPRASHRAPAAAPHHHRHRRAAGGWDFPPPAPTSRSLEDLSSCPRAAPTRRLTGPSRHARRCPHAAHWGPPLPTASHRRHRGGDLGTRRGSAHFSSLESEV
The assay can be described thus: Two-electrode voltage-clamp (TEVC) recordings in Xenopus laevis oocytes, GluN1/GluN2D. The protocol: as §1, §2

Assay [6] has as its target T6, recombinant rat GluN1/GluN2D (Rattus norvegicus, UniProt Q62645).
T6 construct: expressed in transfected cells; host or cells: Xenopus laevis oocytes (Ecocyte) injected with in vitro transcribed cRNA
Described as above. The settings on record: for I10 μM/Icontrol (mean ± SEM, %) GluN2D: 10 μM compound, Table 3; for I30 μM/Icontrol (mean ± SEM, %) GluN2D: 30 μM compound, Tables 5-7. The protocol:
as §1, §2

The target of assay [7] is T7, recombinant rat GluN1/GluN2A (Rattus norvegicus, UniProt Q00959).
T7 construct: expressed in transfected cells; host or cells: Xenopus laevis oocytes (Ecocyte) injected with in vitro transcribed cRNA
The assay can be described thus: Two-electrode voltage-clamp (TEVC) recordings in Xenopus laevis oocytes, GluN1/GluN2A. The settings on record: maximum potentiation, response without modulator = 100%. The protocol:
as §2

Setting [8] is: percentage of the initial glutamate (100 μM) and glycine (30 μM) current, read-out: EC50 (max.) (μM %) GluN2B: fitted maximum response.
[9] abbreviates: percentage of the initial glutamate (100 μM) and glycine (30 μM) current, read-out: EC50 (max.) (μM %) GluN2C: fitted maximum response.
Where [10] appears, read: fitted when potentiation at 30 μM exceeded 120%, Tables 3, 5-7, read-out: EC50 (max.) (μM %) GluN2D: fitted EC50.
Where [11] appears, read: percentage of the initial glutamate (100 μM) and glycine (30 μM) current, read-out: EC50 (max.) (μM %) GluN2D: fitted maximum response.
The mark [12] stands for this setting: maximum potentiation, response without modulator = 100%, read-out: GluN2B EC50 (μM)/Max %: Max %.
Setting [13] is: maximum potentiation, response without modulator = 100%, read-out: GluN2C EC50 (μM)/Max %: Max %.
Where [14] appears, read: maximum potentiation, response without modulator = 100%, read-out: GluN2D EC50 (μM)/Max %: Max %.
[15] abbreviates: maximum potentiation, response without modulator = 100%.

Like-named read-outs stand apart in the source and are kept apart here. Where only a bound is given, the exact number is not on record here.

In general, EC50 refers to the concentration needed to bring the measured effect to its halfway point.

T6 sequence (Q62645 28-1323, other chains not shown): as above
T1 sequence (Q00960 27-1482, other chains not shown): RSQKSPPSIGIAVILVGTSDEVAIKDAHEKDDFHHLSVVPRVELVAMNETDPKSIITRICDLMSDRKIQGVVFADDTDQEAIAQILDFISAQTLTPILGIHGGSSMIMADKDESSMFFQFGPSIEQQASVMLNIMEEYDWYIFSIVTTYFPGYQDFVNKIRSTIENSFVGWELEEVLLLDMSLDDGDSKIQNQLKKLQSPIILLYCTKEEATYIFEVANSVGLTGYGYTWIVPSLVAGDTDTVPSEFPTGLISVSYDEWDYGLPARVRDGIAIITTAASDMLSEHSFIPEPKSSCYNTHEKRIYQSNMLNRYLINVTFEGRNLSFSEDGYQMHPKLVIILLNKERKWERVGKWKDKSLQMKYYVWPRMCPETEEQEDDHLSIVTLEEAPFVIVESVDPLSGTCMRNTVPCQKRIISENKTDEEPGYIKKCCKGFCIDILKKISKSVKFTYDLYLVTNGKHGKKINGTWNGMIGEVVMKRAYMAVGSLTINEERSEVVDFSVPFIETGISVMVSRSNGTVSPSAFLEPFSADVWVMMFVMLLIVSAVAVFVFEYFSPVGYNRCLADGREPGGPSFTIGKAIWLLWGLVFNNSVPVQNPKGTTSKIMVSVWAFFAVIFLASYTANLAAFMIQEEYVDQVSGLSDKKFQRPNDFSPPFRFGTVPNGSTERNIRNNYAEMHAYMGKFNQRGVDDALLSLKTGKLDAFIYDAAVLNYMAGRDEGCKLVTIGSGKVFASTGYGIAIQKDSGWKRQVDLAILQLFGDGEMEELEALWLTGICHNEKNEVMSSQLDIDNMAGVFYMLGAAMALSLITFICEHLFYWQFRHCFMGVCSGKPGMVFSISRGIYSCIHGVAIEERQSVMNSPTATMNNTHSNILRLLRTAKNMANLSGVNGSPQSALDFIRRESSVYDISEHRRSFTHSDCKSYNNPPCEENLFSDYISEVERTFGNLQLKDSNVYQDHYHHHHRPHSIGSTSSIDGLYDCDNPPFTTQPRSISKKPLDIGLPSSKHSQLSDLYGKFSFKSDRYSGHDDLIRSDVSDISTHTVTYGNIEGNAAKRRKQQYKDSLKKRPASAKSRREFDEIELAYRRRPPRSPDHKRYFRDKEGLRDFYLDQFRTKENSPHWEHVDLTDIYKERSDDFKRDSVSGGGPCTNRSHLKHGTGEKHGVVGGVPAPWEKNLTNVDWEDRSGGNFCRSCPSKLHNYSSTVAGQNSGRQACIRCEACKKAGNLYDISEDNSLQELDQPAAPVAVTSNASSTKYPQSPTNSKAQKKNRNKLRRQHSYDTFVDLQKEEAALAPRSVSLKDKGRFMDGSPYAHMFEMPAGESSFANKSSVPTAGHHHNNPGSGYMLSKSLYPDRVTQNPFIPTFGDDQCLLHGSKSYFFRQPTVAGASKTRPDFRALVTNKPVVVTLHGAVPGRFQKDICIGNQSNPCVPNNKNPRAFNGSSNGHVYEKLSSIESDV

As to `COc1ccc(OC[C@H]2c3ccc(OC(C)C)cc3CCN2C(=O)c2cccc(Cl)c2)cc1` [(R)-(+)-1180-55], the results for the EC50 in assay [1] and in assay [5] (setting [10]) were 5 µM and 1.3 µM, respectively. The Emax in assay [1] (setting [8]) was 167%; in assay [3] (setting [9]), 342%; in assay [5] (setting [11]) it was 384%. The “I10 μM/Icontrol (mean ± SEM, %) GluN2B” value in assay [2] was determined as 150%. Moreover, the “I10 μM/Icontrol (mean ± SEM, %) GluN2C” value in assay [4] was 323%. Moreover, the “I10 μM/Icontrol (mean ± SEM, %) GluN2D” value in assay [6] worked out at 345%.
Consider `COc1ccc(OC[C@@H]2c3ccc(OC(C)C)cc3CCN2C(=O)c2cccc(Cl)c2)cc1` [(S)-(−)-1180-55], for which the EC50 in assay [1] is 5.2 µM; in assay [5] (setting [10]), 4.5 µM. The Emax in assay [1] (setting [8]) was found to be 307%; in assay [3] (setting [9]), 360%; in assay [5] (setting [11]) it was 350%. Further, the “I10 μM/Icontrol (mean ± SEM, %) GluN2B” value in assay [2] is 269%. In assay [4], the “I10 μM/Icontrol (mean ± SEM, %) GluN2C” value was determined as 361%. Moreover, the “I10 μM/Icontrol (mean ± SEM, %) GluN2D” value in assay [6] is recorded as 336%.
For the molecule `COc1ccc(OCC2c3ccc(OC(C)C)cc3CCN2C(=S)c2cccc(F)c2)cc1` (centres unmarked) [1180-166], the “GluN2A EC50 (μM)/Max %: Max %” value in assay [7] is recorded as 179%. Besides, the Emax in assay [1] (setting [12]) was 307%; in assay [3] (setting [13]), 233%; in assay [5] (setting [14]), 200%.
Regarding `COc1ccc(OCC2c3ccc(OC(C)C)cc3CCN2C(=O)c2cccc(Cl)c2)cc1` (centres unmarked) [1180-55], the EC50 came out at 5 µM in assay [1], 2.9 µM in assay [5] (EC50 & Max Effect: 2D (μM)) and 4.3 µM in assay [5] (setting [10]). The Emax in assay [1] (setting [12]) was 193%; in assay [1] (setting [8]), 215%; in assay [3] (setting [13]), 266%; in assay [3] (setting [9]), 250%; in assay [3] (read-out: EC50 & Max Effect: 2C Max (%)) it was 266%; in assay [5] (setting [11]), 323%. Moreover, in assay [2], the “I10 μM/Icontrol (mean ± SEM, %) GluN2B” value is on record as 191%. Also, the “I10 μM/Icontrol (mean ± SEM, %) GluN2C” value in assay [4] is on record as 231%. In assay [6], the “I10 μM/Icontrol (mean ± SEM, %) GluN2D” value was 281%.
`CCOc1ccc(OC[C@@H]2c3ccc(OC(C)C)cc3CCN2C(=S)c2cccc(F)c2)cc1` [(S)-(−)-1180-154]: the EC50 in assay [1] is less than 0.5 µM; in assay [3], 0.46 µM; in assay [5] (setting [10]) it was 0.47 µM. In addition, the Emax in assay [1] (setting [8]) stood at 213%; in assay [3] (setting [9]), 163%; in assay [5] (setting [11]), 190%. Besides, the “I30 μM/Icontrol (mean ± SEM, %) GluN2B” value in assay [2] was found to be 206%. Besides, the “I30 μM/Icontrol (mean ± SEM, %) GluN2C” value in assay [4] was determined as 153%. Moreover, in assay [6], the “I30 μM/Icontrol (mean ± SEM, %) GluN2D” value was 185%.
With `CCOc1ccc(OCC2c3ccc(OC(C)C)cc3CCN2C(=S)c2cccc(C(F)(F)F)c2)cc1` (centres unmarked) [1180-168], the EC50 stood at 1 µM in assay [1] and 0.33 µM in assay [3]. The Emax turned out to be 171% in assay [1] (setting [12]); 179% in assay [1] (setting [8]); 138% in assay [3] (setting [13]); 141% in assay [3] (setting [9]); 128% in assay [5] (setting [11]). In addition, the “I30 μM/Icontrol (mean ± SEM, %) GluN2B” value in assay [2] is reported as 185%. In addition, the “I30 μM/Icontrol (mean ± SEM, %) GluN2C” value in assay [4] is reported as 139%. Besides, in assay [6], the “I30 μM/Icontrol (mean ± SEM, %) GluN2D” value turned out to be 126%.
`CCOc1ccc(OC[C@H]2c3ccc(OC(C)C)cc3CCN2C(=S)c2cccc(C(F)(F)F)c2)cc1` [(R)-(+)-1180-168]: the results for the 50% effective concentration (EC50) in assay [1], in assay [3] and in assay [5] (setting [10]) were 0.21 µM, 0.24 µM and 0.3 µM, respectively. In addition, the Emax in assay [1] (setting [8]) was 173%; in assay [3] (setting [9]), 182%; in assay [5] (setting [11]) it was 160%. In addition, the “I30 μM/Icontrol (mean ± SEM, %) GluN2B” value in assay [2] was determined as 156%. The “I30 μM/Icontrol (mean ± SEM, %) GluN2C” value in assay [4] was found to be 146%. Also, the “I30 μM/Icontrol (mean ± SEM, %) GluN2D” value in assay [6] is 157%.
With `COc1ccc(OC[C@@H]2c3ccc(OC(C)C)cc3CCN2C(=S)c2cccc(Cl)c2)cc1` [(S)-(−)-1180-163], the EC50 in assay [1] was 0.28 µM; in assay [3], 0.5 µM; in assay [5] (setting [10]) it was 0.5 µM. Moreover, the Emax in assay [1] (setting [8]) is 202%; in assay [3] (setting [9]), 316%; in assay [5] (setting [11]), 313%. Besides, in assay [2], the “I10 μM/Icontrol (mean ± SEM, %) GluN2B” value is 203%. The “I10 μM/Icontrol (mean ± SEM, %) GluN2C” value in assay [4] came to 302%. Besides, the “I10 μM/Icontrol (mean ± SEM, %) GluN2D” value in assay [6] amounted to 299%.
In the case of `COc1ccc(OCC2c3ccc(OC(C)C)cc3CCN2C(=O)c2cccc(F)c2)cc1` (centres unmarked) [1180-140], in assay [7], the “GluN2A EC50 (μM)/Max %: Max %” value was 159%. For the same molecule, the Emax in assay [1] (setting [12]) was 450%; in assay [3] (setting [13]), 304%; in assay [5] (setting [14]), 521%.
As for `CCOc1ccc(OCC2c3ccc(OC(C)C)cc3CCN2C(=S)c2ccc(F)c(Cl)c2)cc1` (centres unmarked) [1180-165], in assay [7], the “GluN2A EC50 (μM)/Max %: Max %” value came out at 191%. In addition, the “GluN2B EC50 (μM)/Max %: Max %” value in assay [2] (setting [15]) stood at 226%. For the same molecule, the “GluN2C EC50 (μM)/Max %: Max %” value in assay [4] (setting [15]) is reported as 162%. Further, the “GluN2D EC50 (μM)/Max %: Max %” value in assay [6] (setting [15]) was determined as 141%.
`COc1ccc(OC[C@H]2c3ccc(OC(C)C)cc3CCN2C(=S)c2cccc(Cl)c2)cc1` [(R)-(+)-1180-163]: in assay [2], the “I10 μM/Icontrol (mean ± SEM, %) GluN2B” value is 121%. The Emax in assay [3] (setting [9]) came out at 252%; in assay [5] (setting [11]), 255%. Moreover, the “I10 μM/Icontrol (mean ± SEM, %) GluN2C” value in assay [4] was found to be 252%. Further, the EC50 in assay [5] (setting [10]) amounted to 2.3 µM. Also, in assay [6], the “I10 μM/Icontrol (mean ± SEM, %) GluN2D” value came to 215%.

These data come from patent publication US10647679B2, “N-methyl-D-aspartate receptor (NMDAR) potentiators, pharmaceutical compositions, and uses related thereto” (Emory University, priority 2015, dated 2020).
